Experimental data reported in paper PMC3303751, “Development of Tyrosine-Based Radiotracer ^99mTc-N4-Tyrosine for Breast Cancer Imaging” (Journal of Biomedicine and Biotechnology, 2012).

Experiments:
[1] = OLINDA/EXM dosimetry estimates; set-up: species or system human (70 kg standard man model)
Excerpt: Rat absorbed dose estimates for ^99mTc-N4-Tyrosine were computed from biodistribution data. Individual organ and whole-body time-activity curves were fitted to exponential functions using OLINDA/EXM software (version 1.1; Vanderbilt University, Nashville, TN, USA). These functions were then integrated analytically to determine the area under the curve to yield the residence time of ^99mTc-N4-Tyrosine in each organ. It was assumed that the injected activity of ^99mTc-N4-Tyrosine was uniformly distributed throughout the body immediately following injection. Mass correction factors were used to account for the different ratios of organs to total body weight and different scaling of residence times between rats and humans. Residence times were then used to calculate target organ absorbed radiation doses for a 70 kg standard man model using the OLINDA/EXM software.

[2] = system: breast tumor cell line 13762 tumors; experiment: Planar scintigraphic imaging in breast tumor-bearing rats; format: in vivo, Fischer 344 rats; settings: for Tumor %ID (percent of injected dose in the tumor) / tumor-to-muscle (T/M) ratio: i.v. 300 μCi/rat
Experimental: Cells from the breast tumor cell line 13762, suspended in phosphate-buffered solution (10^5 cells/0.1 mL solution per rat), were injected subcutaneously into the right calf muscle of female Fischer 344 rats (n = 9). Planar scintigraphic imaging of ^99mTc-N4-Tyrosine was performed 12–14 days after inoculation when tumors reached approximately 1 cm in diameter. The breast tumor-bearing rats (n = 3/time point) were anesthetized and injected intravenously with ^99mTc-N4-Tyrosine (0.3 mg/rat, 300 μCi/rat), and images were acquired at 30, 120, and 240 minutes after administration of tracers. Planar scintigraphic images were obtained using M-CAM (Siemens Medical Solutions, Hoffman Estates, IL, USA) equipped with a low-energy high-resolution collimator. Computer-outlined regions of interest (ROIs in counts per pixel) between tumor and muscle tissue were used to calculate tumor-to-muscle (T/M) ratios. Percent of injected dose (%ID) in the tumor was also calculated from the reference standard, which was 1/10 of the original injection activity of ^99mTc-N4-Tyrosine.

[3] = system: breast tumor (13762) and turpentine oil-induced inflammation; experiment: Tumor and inflammation uptake comparison, planar scintigraphy; format: in vivo, Fischer 344 rats; settings: tumor- and inflammation-bearing rats
Experimental: To investigate whether ^99mTc-N4-Tyrosine can differentiate tumor tissue from inflammatory tissue, a rat model bearing both a mammary tumor and tissue with turpentine oil-induced inflammation was created. Rat breast tumor cells (from cell line 13762; 10^5 cells/0.1 mL phosphate-buffered solution per rat) were injected into the right calf muscles of 3 female Fischer 344 rats. After the tumors reached 1 cm in diameter, turpentine oil (0.1 mL/rat) was injected into the left calf muscles of the rats to induce inflammation. The anesthetized rats were injected intravenously with ^99mTc-N4-Tyrosine 24 hours after the turpentine injection. Planar scintigraphic images were acquired at 30, 120, and 240 minutes after the ^99mTc-N4-Tyrosine injection, and ROIs of the tumor, inflamed tissue, and muscle were used to calculate the tumor-to-muscle ratios (T/Ms), inflammation-to-muscle ratios (I/Ms), and tumor-to-inflammation ratios (T/Is), respectively. The same animal model was used to evaluate ^18F-FDG. Micro-PET imaging of ^18F-FDG was performed using an R4 micro-PET scanner (Concorde Microsystems, Knoxville, TN, USA). Three breast tumor- and inflammation-bearing rats were injected intravenously with ^18F-FDG (500 μCi/rat), and dynamic PET scans with a spatial resolution of 2.2 mm were obtained at 30, 60, and 90 minutes after ^18F-FDG injection. PET images were reconstructed by using the ordered subset expectation maximization (OSEM) algorithm. T/M, I/M, and T/I ratios were calculated using the regional radioactivity concentrations (μCi/cm^3) that were estimated from the average pixels within ROIs drawn around the tumor, inflamed tissue, or muscle on transverse slices of the reconstructed image sets.

[4] = 15 mCi per patient, 70 kg adult man

## ^99mTc-O-[3-(1,4,8,11-tetraazabicyclohexadecane)-propyl]-tyrosine [^99mTc-N4-Tyrosine]
[1]; [4]
  Human dose (15 mCi), Adrenals: 2.58E − 01 rem
  Human dose (15 mCi), Brain: 2.61E − 02 rem
  Human dose (15 mCi), Breasts: 7.08E − 02 rem
  Human dose (15 mCi), Effective dose: 1.22E − 01 rem
  Human dose (15 mCi), Effective dose equivalent: 3.17E − 01 rem
  Human dose (15 mCi), Gallbladder wall: 2.10E − 01 rem
  Human dose (15 mCi), Heart wall: 4.73E − 01 rem
  Human dose (15 mCi), Kidneys: 2.70E + 00 rem
  Human dose (15 mCi), Liver: 3.06E − 01 rem
  Human dose (15 mCi), Lower large intestine wall: 9.00E − 02 rem
  Human dose (15 mCi), Lungs: 1.26E − 01 rem
  Human dose (15 mCi), Muscle: 7.44E − 02 rem
  Human dose (15 mCi), Osteogenic cells: 2.90E − 01 rem
  Human dose (15 mCi), Ovaries: 9.80E − 02 rem
  Human dose (15 mCi), Pancreas: 2.09E − 01 rem
  Human dose (15 mCi), Red marrow: 1.06E − 01 rem
  Human dose (15 mCi), Skin: 4.95E − 02 rem
  Human dose (15 mCi), Small intestine: 1.50E − 01 rem
  Human dose (15 mCi), Spleen: 3.14E − 01 rem
  Human dose (15 mCi), Stomach wall: 1.38E − 01 rem
  Human dose (15 mCi), Testes: 4.40E − 02 rem
  Human dose (15 mCi), Thymus: 1.27E − 01 rem
  Human dose (15 mCi), Thyroid: 6.92E − 02 rem
  Human dose (15 mCi), Total Body: 1.10E − 01 rem
  Human dose (15 mCi), Upper large intestine wall: 1.36E − 01 rem
  Human dose (15 mCi), Urinary bladder wall: 7.71E − 02 rem
  Human dose (15 mCi), Uterus: 9.80E − 02 rem
[1]; proposed injection of 15 mCi per patient
  Total rem absorbed by each organ versus US FDA limits for radioactive research drugs: below these limits
[2]; all time points (30, 120, 240 minutes)
  tumor detection by planar scintigraphic imaging: clearly detected
[2]; 30 minutes
  Tumor %ID (percent of injected dose in the tumor): 1.82 %ID
  tumor-to-muscle (T/M) ratio: 5.12
[2]; 120 minutes
  Tumor %ID (percent of injected dose in the tumor): 1.87 %ID
  tumor-to-muscle (T/M) ratio: 4.88
[2]; 240 minutes
  Tumor %ID (percent of injected dose in the tumor): 1.71 %ID
  tumor-to-muscle (T/M) ratio: 5.2
[3]; 30 min
  inflammation-to-muscle (I/M) ratio: 4.26
  tumor-to-inflammation (T/I) ratio: 1.2
  tumor-to-muscle (T/M) ratio: 5.12
[3]; 120 min
  inflammation-to-muscle (I/M) ratio: 3.62
  tumor-to-inflammation (T/I) ratio: 1.14
  tumor-to-muscle (T/M) ratio: 4.11
[3]; 240 min
  inflammation-to-muscle (I/M) ratio: 2.45
  tumor-to-inflammation (T/I) ratio: 1.32
  tumor-to-muscle (T/M) ratio: 3.24
[3]; all time points
  tumor-to-inflammation (T/I) ratios: greater than 1
